Test results as given in patent US10375956B2, “Herbicidally active 2-(substituted-phenyl)-cyclopentane-1,3-dione compounds and derivatives thereof” (Syngenta Limited, priority 2013, dated 2019).

Tests used:
Format in all cases: in vivo
[1] = system: Triticum aestivum (TRZAW, winter wheat); experiment: Test 2 glasshouse assay (IF50 formulation, X-77), post-emergence herbicidal activity; details: 360 h, 15 DAA, visual score, read-out: Post-emergence herbicidal activity (percentage phytotoxicity) TRZAW; for plant injury at 30 g/ha: application rate 30 g/ha; for plant injury at 250 g/ha: application rate 250 g/ha; for plant injury at 125 g/ha: application rate 125 g/ha
Description: (§1) Seeds of a variety of monocotyledonous and dicotyledonous test plants are sown in standard soil in pots. The plants are cultivated for one day (for pre-emergence) or for about 12 days (for post-emergence) under controlled conditions in a glasshouse (warm climate species at 24/18° C., cool climate species at 20/16° C., both at day/night; 16 hours light; 65% humidity).
(§2) An “instant formulation”, known as the “IF50”, containing 50 g/liter (i.e. 5% w/v) of the “technical” (i.e. unformulated) active ingredient is prepared by dissolving the active ingredient in a mixture of organic solvents and emulsifier, details of which are provided in the Table below. This IF50 is then mixed with a small, variable amount of acetone to aid dissolution, before addition of a 0.2% v/v aqueous solution of the adjuvant X-77 (which is a mixture of alkyl aryl polyoxyethylene glycols and free fatty acids in isopropanol, CAS Registry number 11097-66-8), as the aqueous diluent, to form an aqueous spray solution which contains a predetermined concentration of the active ingredient (which varies depending on the application rate of the active ingredient to the plants) and 0.2% v/v of the adjuvant X-77. This aqueous spray solution is then sprayed onto the plants, after one day's cultivation (for pre-emergence), or after about 12 days' cultivation (range=10-13 days) (for post-emergence).
(§3) The test plants are then grown on, in a glasshouse (greenhouse) under controlled conditions (warm climate species at 24/18° C., cool climate species at 20/16° C., both at day/night; 16 hours light; 65% humidity) and are watered twice daily. 15 days after application of the test herbicide (15DAA) (for post-emergence), and 20 days after application of the test herbicide (20DAA) (for pre-emergence), the test plants are evaluated visually, and an assessed percentage phytotoxicity score is given for each herbicidal application on each plant species (with 100%=total damage to plant; 0%=no damage to plant).
(§4) Cool climate crop plants: Triticum aestivum (TRZAW, winter wheat), Brassica napus (BRSNN, rape, also called oilseed rape or rapeseed), Beta vulgaris (BEAVA, sugarbeet). Warm climate crop plants: Glycine max (GLXMA, soybean).

[2] = system: Beta vulgaris (BEAVA, sugarbeet); experiment: as above; details: 360 h, 15 DAA, visual score, read-out: Post-emergence herbicidal activity (percentage phytotoxicity) BEAVA; for plant injury at 30 g/ha: application rate 30 g/ha; for plant injury at 250 g/ha: application rate 250 g/ha; for plant injury at 125 g/ha: application rate 125 g/ha
Description: as §1, §2, §3, §4

[3] = system: Glycine max (GLXMA, soybean); experiment: as above; details: 360 h, 15 DAA, visual score, read-out: Post-emergence herbicidal activity (percentage phytotoxicity) GLXMA; for plant injury at 30 g/ha: application rate 30 g/ha; for plant injury at 250 g/ha: application rate 250 g/ha; for plant injury at 125 g/ha: application rate 125 g/ha
Description: as §1, §2, §3, §4

[4] = system: Brassica napus (BRSNN, rape); experiment: as above; details: 360 h, 15 DAA, visual score, read-out: Post-emergence herbicidal activity (percentage phytotoxicity) BRSNN; for plant injury at 30 g/ha: application rate 30 g/ha; for plant injury at 250 g/ha: application rate 250 g/ha; for plant injury at 125 g/ha: application rate 125 g/ha
Description: as §1, §2, §3, §4

[5] = system: Alopecurus myosuroides (ALOMY); experiment: Test 1 glasshouse assay, post-emergence herbicidal activity; details: 312 h, after 13 days, read-out: Percentage phytotoxicity ALOMY
In short: (§5)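 Plants sprayed 8 days after sowing with active ingredient in acetone/water (50:50) containing 0.5% Tween 20, grown in glasshouse at 24/16°C day/night, 14 h light, 65% humidity. Phytotoxicity scored visually after 13 days as percentage damage (100% = total damage; 0% = none).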

[6] = system: Echinochloa crus-galli (ECHCG); experiment: as above; details: 312 h, after 13 days, read-out: Percentage phytotoxicity ECHCG
In short: as §5

[7] = system: Amaranthus retroflexus (AMARE); experiment: Test 1 glasshouse assay, pre-emergence herbicidal activity; details: 312 h, visual evaluation after 13 days, read-out: Percentage phytotoxicity AMARE
In short: (§6)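 Pots are sprayed pre-emergence, one day after sowing, with the technical active ingredient in an acetone/water mixture containing 0.5% Tween 20. After 13 days under controlled glasshouse conditions, damage is rated visually as percent phytotoxicity.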

[8] = system: Setaria faberi (SETFA); experiment: as above; details: 312 h, visual evaluation after 13 days, read-out: Percentage phytotoxicity SETFA
In short: as §6

[9] = system: Alopecurus myosuroides (ALOMY); experiment: as above; details: 312 h, visual evaluation after 13 days, read-out: Percentage phytotoxicity ALOMY
In short: as §6

[10] = system: Abutilon theophrasti (ABUTH); experiment: as above; details: 312 h, visual evaluation after 13 days, read-out: Percentage phytotoxicity ABUTH
In short: as §6

[11] = system: Zea mays (ZEAMX, corn/maize); experiment: as above; details: 312 h, visual evaluation after 13 days, read-out: Percentage phytotoxicity ZEAMX
In short: as §6

[12] = system: Echinochloa crus-galli (ECHCG); experiment: as above; details: 312 h, visual evaluation after 13 days, read-out: Percentage phytotoxicity ECHCG
In short: as §6

[13] = post-emergence (Example 1B Table 1)
[14] = post-emergence (Example 1B Table 2)

| SMILES | plant injury at 30 g/ha [1] [%] | plant injury at 250 g/ha [1] [%] | plant injury at 30 g/ha [2] [%] | plant injury at 250 g/ha [2] [%] | plant injury at 30 g/ha [3] [%] | plant injury at 250 g/ha [3] [%] | plant injury at 30 g/ha [4] [%] | plant injury at 250 g/ha [4] [%] | pest or weed control at 30 g/ha [5, 13] [%] | pest or weed control at 250 g/ha [5, 13] [%] | pest or weed control at 250 g/ha [5, 14] [%] | pest or weed control at 30 g/ha [6, 13] [%] | pest or weed control at 250 g/ha [6, 13] [%] | pest or weed control at 250 g/ha [6, 14] [%] | pest or weed control at 250 g/ha [7] [%] | pest or weed control at 250 g/ha [8] [%] | pest or weed control at 250 g/ha [9] [%] | pest or weed control at 250 g/ha [10] [%] | pest or weed control at 250 g/ha [11] [%] | pest or weed control at 250 g/ha [12] [%] | also measured |
| --- | --- | --- | --- | --- | --- | --- | --- | --- | --- | --- | --- | --- | --- | --- | --- | --- | --- | --- | --- | --- | --- |
| C#CCC1CC(=O)C(c2c(F)cc(-c3ccc(Cl)cn3)cc2Cl)C1=O (stereo not drawn) [Compound A8] | 30 | 90 | 10 | 60 | 20 | 40 | 70 | 80 | 100 | 100 | 100 | 100 | 100 | 100 | 90 | 100 | 90 | 0 | 90 | 100 | pest or weed control at 62.5 g/ha [5, 14]: 80%; pest or weed control at 62.5 g/ha [6, 14]: 100% |
| C#CCC1CC(=O)C(c2cc(-c3ncc(Cl)cc3F)ccc2C)C1=O (stereo not drawn) [Compound A18] |  | 30 |  | 50 |  | 40 |  | 20 | 10 | 70 |  | 60 | 80 |  | 40 | 70 | 60 | 20 | 30 | 60 |  |
| C#CCC1CC(=O)C(c2c(F)cc(-c3ccc(F)c(F)c3)cc2OC)C1=O (stereo not drawn) [Compound A22] | 20 |  | 0 |  | 0 |  | 50 |  | 70 | 100 |  | 90 | 100 |  | 30 | 90 | 80 | 0 | 100 | 100 | plant injury at 125 g/ha [1]: 70%; plant injury at 125 g/ha [2]: 0%; plant injury at 125 g/ha [3]: 40%; plant injury at 125 g/ha [4]: 70% |
| C#CCC1CC(=O)C(c2c(Cl)cc(-c3ccc(F)cc3F)cc2OC)C1=O (stereo not drawn) [Compound A12] | 40 |  | 40 |  | 0 |  | 50 |  | 80 | 100 | 100 | 100 | 100 | 100 | 100 | 100 | 90 | 80 | 100 | 100 | plant injury at 125 g/ha [1]: 80%; plant injury at 125 g/ha [2]: 40%; plant injury at 125 g/ha [3]: 0%; plant injury at 125 g/ha [4]: 60%; pest or weed control at 62.5 g/ha [5, 14]: 60%; pest or weed control at 62.5 g/ha [6, 14]: 100% |
| C#CCC1CC(=O)C(c2c(F)cc(-c3ccc(Cl)cc3)cc2Cl)C1=O (stereo not drawn) [Compound A6, 2-[2-chloro-4-(4-chlorophenyl)-6-fluorophenyl]-4-prop-2-ynylcyclopentane-1,3-dione] |  | 90 |  | 40 |  | 10 |  | 40 | 80 | 100 | 100 | 100 | 100 | 100 | 90 | 100 | 90 | 40 | 90 | 100 | plant injury at 125 g/ha [1]: 80%; plant injury at 125 g/ha [2]: 20%; plant injury at 125 g/ha [3]: 10%; plant injury at 125 g/ha [4]: 20% |
